IC50 data for 15 compounds are collected here from patent publication US12421210B2, “Fused bicyclic heterocycles as therapeutic agents” (NEW YORK UNIVERSITY, priority 2018, dated 2025).

Bounds are passed on as bounds.

What is called IC50 is the concentration that gives 50% inhibition.

human NAMPT enzyme (His-hNAMPT), sequence (P43490 whole entry): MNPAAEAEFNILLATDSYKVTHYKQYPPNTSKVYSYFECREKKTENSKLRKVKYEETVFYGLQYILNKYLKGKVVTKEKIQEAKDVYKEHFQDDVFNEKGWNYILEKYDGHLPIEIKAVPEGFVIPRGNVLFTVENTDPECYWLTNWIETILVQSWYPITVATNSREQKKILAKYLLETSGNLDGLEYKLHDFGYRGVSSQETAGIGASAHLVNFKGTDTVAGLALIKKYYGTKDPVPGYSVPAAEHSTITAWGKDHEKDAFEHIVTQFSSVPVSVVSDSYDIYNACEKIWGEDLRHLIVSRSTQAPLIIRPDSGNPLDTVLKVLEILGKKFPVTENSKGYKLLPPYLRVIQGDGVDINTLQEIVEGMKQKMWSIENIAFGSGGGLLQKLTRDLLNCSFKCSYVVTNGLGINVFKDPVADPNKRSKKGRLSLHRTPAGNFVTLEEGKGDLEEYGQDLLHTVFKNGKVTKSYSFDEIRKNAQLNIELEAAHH

The first assay deals with human NAMPT enzyme (His-hNAMPT) (Homo sapiens (Human), UniProt P43490). Kind of assay: NAMPT enzymatic inhibition assay (fluorescence, NADH product). The class given is biochemical. Particulars: [BPS]; read-out: NAMPT IC50 (μM) [BPS]. As to the method:
The compounds were then diluted 20 fold in an intermediate dilution to 5% DMSO and water. Finally 10 μL of each compound was added to the assay plate, in duplicate, with highest concentration at 30 μM and the lowest at 0.001 μM in a final volume of 50 μL and 1% DMSO concentration. Each assay also tested, in parallel, two reference compounds, FK866 and GMX1778, with highest concentration at 10 μM and lowest at 0.0003 μM. 200 ng of human NAMPT enzyme (His-hNAMPT obtained from E. coli expression system) diluted in […] (tris-buffered saline-Polysorbate 20) 1× was added to each well in a volume of 10 μL and the compounds were incubated with the enzyme at room temperature for 20 minutes. After the incubation, 30 μL of master mixture were added to each well. The master mixture contained: 50 mM Tris-HCl, pH 8.0, 12.5 mM MgCl2, 20 μM nicotinamide, 40 μM phosphoribosyl pyrophosphate (PRPP), 20 μM adenosine triphosphate (ATP), 30 μg/mL of alcohol dehydrogenase, 10 μg/mL of NMNAT, 1.5% alcohol, 1 mM dithiothreitol (DTT), 0.02% bovine serum albumin (BSA), 0.01% Tween 20. The reaction was performed at 30° C. for 60 minutes. Fluorescence intensity was measured at an excitation of 340 nm and an emission of 460 nm using a Tecan Infinite M1000 microplate reader. The fluorescence values indicated increase of NADH product.
Enzyme activity assay was performed in duplicate at each concentration. The fluorescence data was analyzed and compared. In the absence of the compound, the intensity (Ce) in each data set was defined as 100% activity. In the absence of enzyme, the intensity (C0) in each data set was defined as 0% activity. The percent activity in the presence of each compound was calculated according to the following equation: % activity=(C−C0)/(Ce−C0), where C is the fluorescence in the presence of the compound.
The % activity vs. compound concentrations were then plotted using non-linear regression analysis of Sigmoidal dose-response curve generated with the equation Y=B+(T−B)/1+10^((Log EC50-X)×Hill Slope), where Y is percent activity, B is minimum percent activity, T is maximum percent activity, X is logarithm of compound and Hill Slope=slope factor or Hill coefficient.
`CC1(OC(=O)N2C[C@@H]3[C@@H](CCNC(=O)C4C[C@@H]4c4cccnc4)[C@@H]3C2)COC1` (mixture of isomers) [Example 53, (1R,5S,6s)-3-methyloxetan-3-yl 6-(2-((1S,2S)-2-(pyridin-3-yl)cyclopropanecarboxamido)ethyl)-3-azabicyclo[3.1.0]hexane-3-carboxylate and (1R,5S,6s)-3-methyloxetan-3-yl 6-(2-((1R,2R)-2-(pyridin-3-yl)cyclopropanecarboxamido)ethyl)-3-azabicyclo[3.1.0]hexane-3-carboxylate]: the 50% inhibitory concentration (IC50) fell in the range of 0.01 to 0.49 µM.
Still for that read-out and setting: to `O=C(/C=C/c1cccnc1)NCC[C@H]1[C@@H]2CN(c3ccccc3)C(=O)[C@H]12` (racemic) [Example 256 racemic, (E)-N-(2-((1R,5S,6S)-2-oxo-3-phenyl-3-azabicyclo[3.1.0]hexan-6-yl)ethyl)-3-(pyridin-3-yl)acrylamide and (E)-N-(2-((1S,5R,6R)-2-oxo-3-phenyl-3-azabicyclo[3.1.0]hexan-6-yl)ethyl)-3-(pyridin-3-yl)acrylamide] belongs 0.01 to 0.49 µM.
For `O=C(/C=C/c1cccnc1)NCC[C@@H]1[C@H]2CN(Cc3ccccc3)C(=O)[C@@H]12` (racemic) [Example 257, (E)-N-(2-((1R,5S,6S)-3-benzyl-2-oxo-3-azabicyclo[3.1.0]hexan-6-yl)ethyl)-3-(pyridin-3-yl)acrylamide and (E)-N-(2-((1S,5R,6R)-3-benzyl-2-oxo-3-azabicyclo[3.1.0]hexan-6-yl)ethyl)-3-(pyridin-3-yl)acrylamide], the IC50 was 0.01 to 0.49 µM.
Same read-out and setting: in the case of `Nc1ccc(/C=C/C(=O)NCC[C@@H]2[C@H]3CN(Cc4ccccc4)C(=O)[C@@H]23)cn1` (racemic) [Example 258, (E)-3-(6-aminopyridin-3-yl)-N-(2-((1R,5S,6S)-3-benzyl-2-oxo-3-azabicyclo[3.1.0]hexan-6-yl)ethyl)acrylamide and (E)-3-(6-aminopyridin-3-yl)-N-(2-((1S,5R,6R)-3-benzyl-2-oxo-3-azabicyclo[3.1.0]hexan-6-yl)ethyl)acrylamide] it was 0.01 to 0.49 µM.
With `Nc1ccc(/C=C/C(=O)NCC[C@@H]2[C@H]3CN(c4ccccc4)C(=O)[C@@H]23)cn1` (racemic) [Example 259, (E)-3-(6-aminopyridin-3-yl)-N-(2-((1S,5R,6R)-2-oxo-3-phenyl-3-azabicyclo[3.1.0]hexan-6-yl)ethyl)acrylamide and (E)-3-(6-aminopyridin-3-yl)-N-(2-((1R,5S,6S)-2-oxo-3-phenyl-3-azabicyclo[3.1.0]hexan-6-yl)ethyl)acrylamide], the IC50 was 0.01 to 0.49 µM.
On the same count and under the same terms, in the case of `O=C(NCC[C@@H]1[C@H]2CN(c3ccccc3)C(=O)[C@@H]12)c1cc2ccncc2o1` (racemic) [Example 260, N-(2-((1R,5S,6S)-2-oxo-3-phenyl-3-azabicyclo[3.1.0]hexan-6-yl)ethyl)furo[2,3-c]pyridine-2-carboxamide and N-(2-((1S,5R,6R)-2-oxo-3-phenyl-3-azabicyclo[3.1.0]hexan-6-yl)ethyl)furo[2,3-c]pyridine-2-carboxamide] it was 0.5 to 0.99 µM; in that of `CC(C)(C)OC(=O)N1C[C@H]2CCC(CNC(=O)NCc3cccnc3)C[C@H]2C1` (stereo in doubt) [Example 269, tert-butyl 5-((3-(pyridin-3-ylmethyl)ureido)methyl)hexahydro-1H-isoindole-2(3H)-carboxylate], 1 to 29 µM.
On the same count and under the same terms, to `CC(C)(C)OC(=O)N1C[C@H]2CCC(CNC(=O)N3Cc4ccncc4C3)C[C@H]2C1` (stereo in doubt) [Example 270, tert-butyl 5-((2,3-dihydro-1H-pyrrolo[3,4-c]pyridine-2-carboxamido)methyl)hexahydro-1H-isoindole-2(3H)-carboxylate] belongs 0.01 to 0.49 µM; to `CC(C)(C)OC(=O)N1C[C@@H]2[C@@H](CCNC(=O)/C=C/c3cccnc3)[C@@H]2C1` [Example 1, (1R,5S,6s)-tert-butyl 6-(2-((E)-3-(pyridin-3-yl)acrylamido)ethyl)-3-azabicyclo[3.1.0]hexane-3-carboxylate], less than 0.01 µM.

The assay is the same for the next values; noted with them: [HDB]; read-out: NAMPT IC50 (μM) [HDB].
With `O=C(/C=C/c1cccnc1)NCC[C@@H]1[C@H]2CN(c3ccc(F)cc3)C(=O)[C@@H]12` (mixture of isomers) [Example 264, (E)-N-(2-((1R,5S,6S)-3-(4-fluorophenyl)-2-oxo-3-azabicyclo[3.1.0]hexan-6-yl)ethyl)-3-(pyridin-3-yl)acrylamide and (E)-N-(2-((1S,5R,6R)-3-(4-fluorophenyl)-2-oxo-3-azabicyclo[3.1.0]hexan-6-yl)ethyl)-3-(pyridin-3-yl)acrylamide], the IC50 is 0.01 to 0.49 µM.
The same measure, in the same setting: to `O=C(/C=C/c1cccnc1)NCC[C@H]1[C@@H]2CN(c3ccccc3)C(=O)[C@H]12` (racemic) [Example 256 racemic, (E)-N-(2-((1R,5S,6S)-2-oxo-3-phenyl-3-azabicyclo[3.1.0]hexan-6-yl)ethyl)-3-(pyridin-3-yl)acrylamide and (E)-N-(2-((1S,5R,6R)-2-oxo-3-phenyl-3-azabicyclo[3.1.0]hexan-6-yl)ethyl)-3-(pyridin-3-yl)acrylamide] belongs 0.01 to 0.49 µM.
Still for that read-out and setting: to `O=C(/C=C/c1cccnc1)NCC[C@@H]1[C@H]2CN(c3cccc(C(F)(F)F)c3)C(=O)[C@@H]12` (racemic) [Example 262, (E)-N-(2-((1R,5S,6S)-2-oxo-3-(3-(trifluoromethyl)phenyl)-3-azabicyclo[3.1.0]hexan-6-yl)ethyl)-3-(pyridin-3-yl)acrylamide and (E)-N-(2-((1S,5R,6R)-2-oxo-3-(3-(trifluoromethyl)phenyl)-3-azabicyclo[3.1.0]hexan-6-yl)ethyl)-3-(pyridin-3-yl)acrylamide] belongs 0.01 to 0.49 µM; to `Nc1ccc(/C=C/C(=O)NCC[C@@H]2[C@H]3CN(c4cccc(C(F)(F)F)c4)C(=O)[C@@H]23)cn1` (racemic) [Example 263, (E)-3-(6-aminopyridin-3-yl)-N-(2-((1R,5S,6S)-2-oxo-3-(3-(trifluoromethyl)phenyl)-3-azabicyclo[3.1.0]hexan-6-yl)ethyl)acrylamide and (E)-3-(6-aminopyridin-3-yl)-N-(2-((1S,5R,6R)-2-oxo-3-(3-(trifluoromethyl)phenyl)-3-azabicyclo[3.1.0]hexan-6-yl)ethyl)acrylamide], 0.01 to 0.49 µM.
With `O=C(NCC[C@@H]1[C@H]2CN(c3ccc(F)cc3)C(=O)[C@@H]12)N1Cc2ccccc2C1` (racemic) [Example 266, N-(2-((1R,5S,6S)-3-(4-fluorophenyl)-2-oxo-3-azabicyclo[3.1.0]hexan-6-yl)ethyl)isoindoline-2-carboxamide and N-(2-((1S,5R,6R)-3-(4-fluorophenyl)-2-oxo-3-azabicyclo[3.1.0]hexan-6-yl)ethyl)isoindoline-2-carboxamide], the IC50 lay within 0.01 to 0.49 µM.
Still for that read-out and setting: in the case of `O=C(NCC[C@H]1[C@@H]2CN(c3ccccc3)C(=O)[C@H]12)c1cc(-c2cccnc2)on1` (stereo in doubt) [Example 261, N-(2-((1R,5S,6S)-2-oxo-3-phenyl-3-azabicyclo[3.1.0]hexan-6-yl)ethyl)-5-(pyridin-3-yl)isoxazole-3-carboxamide/N-(2-((1S,5R,6R)-2-oxo-3-phenyl-3-azabicyclo[3.1.0]hexan-6-yl)ethyl)-5-(pyridin-3-yl)isoxazole-3-carboxamide] it was 0.01 to 0.49 µM; in that of `O=C(NCC[C@H]1[C@@H]2CN(c3ccc(F)cc3)C(=O)[C@H]12)c1cc(-c2cccnc2)on1` (stereo in doubt) [Example 265, N-(2-((1R,5,6S)-3-(4-fluorophenyl)-2-oxo-3-azabicyclo[3.1.0]hexan-6-yl)ethyl)-5-(pyridin-3-yl)isoxazole-3-carboxamide and N-(2-((1S,5R,6R)-3-(4-fluorophenyl)-2-oxo-3-azabicyclo[3.1.0]hexan-6-yl)ethyl)-5-(pyridin-3-yl)isoxazole-3-carboxamide], 0.01 to 0.49 µM.
